Results as given in patent US20240058457A1, “BTK DEGRADER” (Newave Pharmaceutical Inc., priority 2020, published 2024).

Experiments:
Mice PK study = format: in vivo; conditions: CD-1 mouse; for AUCinf(h*ng/mL)/(mg/kg): plasma, route not stated in table (text: oral PK profile)
Procedure: The pharmacokinetics of compounds were evaluated in CD-1 mouse via Intravenous and Oral Administration. The IV dose was administered as a slow bolus in the Jugular vein, and oral doses were administered by gavage. The formulation for IV dosing is 5% DMSO in 20% HPBCD in water, and the PO formulation is 2.5% DMSO, 10% EtOH, 20% Cremphor EL, 67.5% D5W. The PK time point for the IV arm was 5, 15, 30 min, 1, 2, 4, 6, 8, 12, 24 hours post dose, and for PO arm was 15, 30 min, 1, 2, 4, 6, 8, 12, 24 hours post dose. Approximately 0.03 mL blood was collected at each time point. Blood of each sample was transferred into plastic micro centrifuge tubes containing EDTA-K2 and plasma was collected within 15 min by centrifugation at 4000 g for 5 minutes in a 4° C. centrifuge. Plasma samples were stored in polypropylene tubes. The samples were stored in a freezer at −75±15° C. prior to analysis. Concentrations of compounds in the plasma samples were analyzed using a LC-MS/MS method. WinNonlin (Phoenix™, version 6.1) or other similar software was used for pharmacokinetic calculations. The following pharmacokinetic parameters were calculated, whenever possible from the plasma concentration versus time data: IV administration: C0, CL, Vd, T1/2, AUCinf, AUClast, MRT, Number of Points for Regression; PO administration: Cmax, Tmax, T1/2, AUCinf, AUClast, F %, Number of Points for Regression. The pharmacokinetic data was described using descriptive statistics such as mean, standard deviation. Additional pharmacokinetic or statistical analysis was performed at the discretion of the contributing scientist, and was documented in the data summary.

BTK = target: T1, BTK (Homo sapiens, UniProt Q06187); experiment: BTK HTRF degradation assay; format: cell-based; conditions: treatment time 24 h; Cisbio Total-BTK HTRF; Rec-1 / Ramos cells
T1 construct: endogenous in cells; host or cells: Rec-1 cells (ATCC) / Ramos cells
Procedure: Rec-1 cells were obtained from American Type Culture Collection and were grown in RPMI-1640 media (ATCC, 30-2001) supplemented with 10% heat-inactivated FBS (Corning Premium Fetal Bovine Serum from Fisher, MT35015CV). Compounds of the present invention were added to 50,000 Ramos cells in round-bottom 96 well plates with a final DMSO concentration of […] and were incubated at 37° C. 5% CO2 for different time. BTK levels were determined using Cisbio Total-BTK HTRF ([…] Time-Resolved Fluorescence) kit (63ADK064PEG) according to manufacturer's protocol. Briefly, cells were incubated in 1× supplied lysis buffer for 30 minutes. In an opaque white low volume 96 well plate (Cisbio, 66PL96005), cell lysate was combined with two different specific BTK antibodies, one conjugated with Eu3+-Cryptate FRET donor and one conjugated with d2 FRET acceptor. Assay controls include wells containing cell lysate with only the Eu3+-Cryptate FRET donor antibody and wells containing both HTRF antibodies and lysis buffer without cells or control lysate provided by Cisbio. HTRF ratio was calculated as (acceptor signal at 665 nm/donor signal at 620 nm)×[…]. Background HTRF levels were determined from the control well containing the donor, but no acceptor, antibody. Background HTRF levels were subtracted from all samples. Readouts were reported as HTRF levels relative to HTRF levels of DMSO-treated cells. Four-parameter non-linear regressions were performed in GraphPad Prism 7.02 to obtain DC50 values.

T1 sequence (Q06187 whole entry): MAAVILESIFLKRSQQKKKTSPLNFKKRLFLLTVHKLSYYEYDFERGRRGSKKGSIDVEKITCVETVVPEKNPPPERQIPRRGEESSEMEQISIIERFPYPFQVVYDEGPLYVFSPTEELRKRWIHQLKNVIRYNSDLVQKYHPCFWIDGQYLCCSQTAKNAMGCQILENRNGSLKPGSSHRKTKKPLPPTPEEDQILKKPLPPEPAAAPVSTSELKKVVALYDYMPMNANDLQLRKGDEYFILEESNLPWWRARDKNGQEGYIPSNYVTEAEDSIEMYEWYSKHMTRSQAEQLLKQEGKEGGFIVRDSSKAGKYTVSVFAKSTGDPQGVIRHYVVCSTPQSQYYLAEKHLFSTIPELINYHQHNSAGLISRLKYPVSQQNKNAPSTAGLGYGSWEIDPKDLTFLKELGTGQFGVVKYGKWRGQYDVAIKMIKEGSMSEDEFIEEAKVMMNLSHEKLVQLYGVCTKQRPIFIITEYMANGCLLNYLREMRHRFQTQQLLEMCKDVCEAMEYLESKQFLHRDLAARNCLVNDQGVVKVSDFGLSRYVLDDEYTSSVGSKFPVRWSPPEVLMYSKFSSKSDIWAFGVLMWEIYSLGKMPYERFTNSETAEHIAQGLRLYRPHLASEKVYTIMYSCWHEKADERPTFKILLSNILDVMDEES

Row | oral PK profile (comparison) (Mice PK study; oral) | AUCinf(h*ng/mL)/(mg/kg) (Mice PK study) | DC50 (BTK) [nM] | Dmax (BTK) [%] | Dmax % (BTK) [%] | Structure (SMILES)
1 | better oral PK profile than Example 2 | 3,822 (h*ng/mL)/(mg/kg) | 1.1 | 98 |  | [2H]C([2H])([2H])n1cc(-c2ccnc(N3CCn4c(cc5c4CC(C)(C)C5)C3=O)c2CO)cc(Nc2ccc(N3CCN(C4CCN(c5ccc6c(c5)C(=O)N(C5CCC(=O)NC5=O)C6=O)CC4)C[C@@H]3C)cn2)c1=O (stereo partly drawn) [Example 22, 5-(4-((S)-4-(6-((2′-(7,7-dimethyl-1-oxo-1,3,4,6,7,8-hexahydro-2H-cyclopenta[4,5]pyrrolo[1,2-a]pyrazin-2-yl)-3′-(hydroxymethyl)-1-(methyl-d3)-6-oxo-1,6-dihydro-[3,4′-bipyridin]-5-yl)amino)pyridin-3-yl)-3-methylpiperazin-1-yl)piperidin-1-yl)-2-(2,6-dioxopiperidin-3-yl)isoindoline-1,3-dione]
2 |  | 3,120 (h*ng/mL)/(mg/kg) | 0.46 |  | 96 | C[C@H]1CN(C2CCN(c3ccc4c(c3)C(=O)N(C3CCC(=O)NC3=O)C4=O)CC2)CCN1c1ccc(Nc2cc(-c3ccnc(N4CCn5c(cc6c5CC(C)(C)C6)C4=O)c3CO)cn(C)c2=O)nc1 (stereo partly drawn) [Example 2, 5-{4-[(3S)-4-{6-[(2′-{4,4-dimethyl-9-oxo-1,10-diazatricyclo[6.4.0.0^{2,6}]dodeca-2(6),7-dien-10-yl}-3′-(hydroxymethyl)-1-methyl-6-oxo-[3,4′-bipyridin]-5-yl)amino]pyridin-3-yl}-3-methylpiperazin-1-yl]piperidin-1-yl}-2-(2,6-dioxopiperidin-3-yl)isoindole-1,3-dione]
